Source: patent publication US8802597B2, “Herbicidal pyrimidines” (E I du Pont de Nemours and Company, priority 2003, dated 2014)

Key:
Assay in all cases: Test A pre/postemergence
Assay type in all cases: in vivo
[1] = system: redroot pigweed (Amaranthus retroflexus)
Outline: (§1)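 After planting in loam and sand, species received test chemical as preemergence soil spray; postemergence spray went on 2–10 cm plants at 1–2 leaves at the same time. Evaluation: visual injury, ~10 d, 0 no effect to 100 complete control.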

[2] = system: morningglory (Ipomoea spp.)
Outline: as §1

[3] = system: velvetleaf (Abutilon theophrasti)
Outline: as §1

[4] = system: giant foxtail (Setaria faberi)
Outline: as §1

[5] = system: barnyardgrass (Echinochloa crus-galli)
Outline: as §1

[6] = system: crabgrass (Digitaria sanguinalis)
Outline: as §1

[7] = Postemergence, 125 g ai/ha, 0 to 100 scale (0 no effect, 100 complete control)
[8] = Postemergence, 500 g ai/ha, 0 to 100 scale (0 no effect, 100 complete control)
[9] = Preemergence, 125 g ai/ha, 0 to 100 scale where 0 is no effect and 100 is complete control, approximately ten days
[10] = Preemergence, 500 g ai/ha, 0 to 100 scale where 0 is no effect and 100 is complete control, approximately ten days

Row | Structure (SMILES) | Plant response rating, Pigweed [1, 7] | Plant response rating, Pigweed [1, 8] | Plant response rating, Pigweed [1, 9] | Plant response rating, Pigweed [1, 10] | Plant response rating, Morningglory [2, 7] | Plant response rating, Morningglory [2, 8] | Plant response rating, Morningglory [2, 9] | Plant response rating, Morningglory [2, 10] | Plant response rating, Velvetleaf [3, 7] | Plant response rating, Velvetleaf [3, 8] | Plant response rating, Velvetleaf [3, 9] | Plant response rating, Velvetleaf [3, 10] | Plant response rating, Foxtail, Giant [4, 7] | Plant response rating, Foxtail, Giant [4, 8] | Plant response rating, Foxtail, Giant [4, 9] | Plant response rating, Foxtail, Giant [4, 10] | Plant response rating, Barnyardgrass [5, 7] | Plant response rating, Barnyardgrass [5, 8] | Plant response rating, Barnyardgrass [5, 9] | Plant response rating, Barnyardgrass [5, 10] | further results
1 | CCCOC(=O)c1nc(-c2ccc(Cl)cc2)nc(N)c1Cl [Compound 105] | 65 | 90 | 0 | 0 | 50 | 70 | 0 | 0 | 85 | 95 | 0 | 0 | 10 | 10 | 0 | 0 | 10 | 25 | 0 | 0 | Plant response rating, Crabgrass [6, 7]: 20; Plant response rating, Crabgrass [6, 8]: 45; Plant response rating, Crabgrass [6, 9]: 0; Plant response rating, Crabgrass [6, 10]: 0
2 | CCOC(=O)COc1nc(C2CC2)nc(N)c1Cl [Compound 115] | 10 | 45 | 30 | 40 | 35 | 60 | 25 | 35 | 30 | 40 | 5 | 10 | 0 | 0 | 0 | 0 | 0 | 0 | 0 | 20 | Plant response rating, Crabgrass [6, 7]: 0; Plant response rating, Crabgrass [6, 8]: 0; Plant response rating, Crabgrass [6, 9]: 0; Plant response rating, Crabgrass [6, 10]: 10
